Legend:
[1] = xn = mol fraction of the nth substance listed; settings: 101 kPa, Liquid, Vibrating tube method, x2 = 0
[2] = Liquid; for mass density: 101.3 kPa, Vibrating tube method; for vapor or sublimation pressure: Ebulliometric method (Recirculating still)
[3] = refractive index (Na D-line) (dimensionless); settings: 298.15 K; 101.33 kPa; Liquid; Standard Abbe refractometry

CCCCCCC [heptane] + CCCC(=O)OCC
[1]
Settings	mass density [kg/m3]
288.15 K	688.16
298.15 K	679.62
308.15 K	670.96
318.15 K	662.33
328.15 K	653.61

CCCC(=O)OCC [ethyl butanoate]
[2]
Settings	mass density [kg/m3]	vapor or sublimation pressure [kPa]
288.15 K	884.01	–
298.15 K	873.5	–
308.15 K	862.85	–
318.15 K	852.26	–
328.15 K	841.55	–
377.33 K	–	60
378.63 K	–	62.5
379.81 K	–	65
380.99 K	–	67.5
382.1 K	–	70
383.23 K	–	72.5
384.31 K	–	75
385.34 K	–	77.5
386.35 K	–	80
387.34 K	–	82.5
388.31 K	–	85
389.25 K	–	87.5
390.17 K	–	90
391.06 K	–	92.5
391.94 K	–	95
392.81 K	–	97.5
393.66 K	–	100
394.26 K	–	101.32
394.31 K	–	101.32
395.43 K	–	105
397.05 K	–	110
398.57 K	–	115
400.1 K	–	120
401.54 K	–	125
402.99 K	–	130
404.34 K	–	135
405.62 K	–	140
406.96 K	–	145
408.22 K	–	150
409.45 K	–	155
410.61 K	–	160
411.77 K	–	165
412.95 K	–	170
414.05 K	–	175
415.01 K	–	180
416.08 K	–	185
417.14 K	–	190
418.15 K	–	195
419.14 K	–	200
420.12 K	–	205
421.1 K	–	210
422.01 K	–	215
422.94 K	–	220
423.85 K	–	225
424.79 K	–	230
425.67 K	–	235
426.53 K	–	240
427.35 K	–	245
428.2 K	–	250
429.04 K	–	255
429.84 K	–	260
430.65 K	–	265
431.42 K	–	270
432.23 K	–	275
433 K	–	280

Settings	refractive index
[3]	1.3898
